The record followed here is ChEMBL document CHEMBL4359820, “Enrichment of novel quinazoline derivatives with high antitumor activity in mitochondria tracked by its self-fluorescence” (Eur J Med Chem, 2019).

The structures appear in SMILES notation. Calls of active or inactive are those of the source. No cut-off for these calls is given here. Where only a bound is given, the exact number is not on record here.

Data set [1] concerns the target Epidermal growth factor receptor (Homo sapiens) (UniProt P00533). The note with it: HEK293, at 50 nM.
Description: Inhibition of human recombinant His-tagged wild type EGFR expressed in HEK293 cells at 50 nM using poly[Glu:Tyr] (4:1) as substrate incubated for 60 mins by ELISA relative to control
In data set [2] the test system is A549. Nature of the data set: Induction of apoptosis in human A549 cells assessed as viable cells at 20 uM incubated for 48 hrs by annexin V -FITC and PI staining based flow cytometric analysis (reference value: 94.56%). The data set is classed as functional. The conditions noted are these: A549, 48 h, read-out: Activity. In general terms: Flow cytometry measures light scatter and fluorescence of single cells or particles in a stream.

Data set [3] relates to A549. Nature of the data set: Induction of apoptosis in human A549 cells assessed as early apoptotic cells at 20 uM incubated for 48 hrs by annexin V -FITC and PI staining based flow cytometric analysis (reference value: 2.93%). The data set is classed as functional.
In data set [4] the test system is A549. The experiment in a line: Induction of apoptosis in human A549 cells assessed as late apoptotic cells at 20 uM incubated for 48 hrs by annexin V -FITC and PI staining based flow cytometric analysis (reference value: 2.24%). Format: functional.
The test system of data set [5] is A549. The experiment in a line: Induction of apoptosis in human A549 cells assessed as necrotic cells at 20 uM incubated for 48 hrs by annexin V -FITC and PI staining based flow cytometric analysis (reference value: 0.27%). The data set is classed as functional.
The subject of data set [6] is A549. Nature of the data set: Induction of cell cycle arrest in human A549 cells assessed as accumulation at G0/G1 phase at 20 uM incubated for 48 hrs by PI staining based flow cytometric analysis (reference value: 51.73%). The data set is classed as functional.
The test system of data set [7] is A549. Nature of the data set: Induction of cell cycle arrest in human A549 cells assessed as accumulation at S phase at 20 uM incubated for 48 hrs by PI staining based flow cytometric analysis (reference value: 33.67%). Format: functional.
Data set [8] deals with A549. Nature of the data set: Induction of cell cycle arrest in human A549 cells assessed as accumulation at G2/M phase at 20 uM incubated for 48 hrs by PI staining based flow cytometric analysis (reference value: 14.36%). The data set is classed as functional.
A further data set concerns NCI-H1975. Format: functional, cell-based. The note with it: Homo sapiens, NCI-H1975, 72 h.
A further data set concerns SW480. Format: functional, cell-based. The conditions noted are these: Homo sapiens, SW480, 72 h.
The subject of data set [9] is A549. The data set is classed as functional, cell-based. The note with it: Homo sapiens, A549, 72 h.
A further data set deals with A-431. The experiment in a line: cells. The note with it: Homo sapiens, A-431, 72 h.
Data set [10] deals with Epidermal growth factor receptor (Homo sapiens) (UniProt P00533). Nature of the data set: Inhibition of EGF-induced EGFR phosphorylation at Tyr-residue in human A549 cells at 0.4 to 10 uM preincubated for 2 hrs followed by EGF treatment and measured after 10 mins by Western blot analysis. The data set is classed as cell-based.
Data set [11] shares this target. Nature of the data set: Inhibition of EGF-induced EGFR phosphorylation at Y1068 in human A549 cells at 0.4 to 10 uM preincubated for 2 hrs followed by EGF treatment and measured after 10 mins by Western blot analysis. Format: cell-based. A general note: In western blotting, separated proteins are transferred to a membrane and probed.
Data set [12] has the same target. The experiment in a line: Inhibition of EGF-induced EGFR phosphorylation at Y992 in human A549 cells at 0.4 to 10 uM preincubated for 2 hrs followed by EGF treatment and measured after 10 mins by Western blot analysis. Format: cell-based.
For data set [13] the target is unchanged. Nature of the data set: Inhibition of EGF-induced EGFR phosphorylation at Tyr-residue in human A431 cells at 0.2 to 5 uM preincubated for 2 hrs followed by EGF treatment and measured after 10 mins by Western blot analysis. Format: cell-based.
Data set [14] shares this target. Nature of the data set: Inhibition of EGF-induced EGFR phosphorylation at Y1068 in human A431 cells at 0.2 to 5 uM preincubated for 2 hrs followed by EGF treatment and measured after 10 mins by Western blot analysis. Format: cell-based.
Data set [15] shares this target. Nature of the data set: Inhibition of EGF-induced EGFR phosphorylation at Y992 in human A431 cells at 0.2 to 5 uM preincubated for 2 hrs followed by EGF treatment and measured after 10 mins by Western blot analysis. Format: cell-based.
A short description of data set [16]: Drug uptake in human A549 cells at 5 uM incubated for 2 hrs by fluorescence microscopic method. The note with it: a549, 2 h. The data set is classed as ADME, cell-based.
The nature of data set [17]: Drug localization in mitochondria of human A549 cells at 5 uM incubated for 30 mins by Mitotracker red staining based confocal microscopic method. Format: ADME. The note with it: a549, 0.5 h.
A short description of data set [18]: Drug localization in mitochondria of human A549 cells at 5 uM incubated for 30 mins by Mitotracker green staining based confocal microscopic method. Format: ADME. The conditions noted are these: a549, 0.5 h.
Data set [19] can be described thus: Drug localization in lysosome of human A549 cells at 5 uM incubated for 30 mins by Lysotracker red staining based confocal microscopic method. The conditions noted are these: a549, 0.5 h. The data set is classed as ADME, subcellular.
Data set [20] in a line: Drug uptake in human A549 cells incubated for 2 hrs by FACS analysis. The data set is classed as ADME, cell-based. The conditions noted are these: a549, 2 h.
A short description of data set [21]: Drug uptake in human A549 cells at 1 uM incubated for 2 hrs by FACS analysis (reference value: 0%). Format: ADME, cell-based. The note with it: a549, 2 h.
A short description of data set [22]: Drug uptake in human A549 cells at 5 uM incubated for 2 hrs by FACS analysis (reference value: 0%). The data set is classed as ADME, cell-based. The conditions noted are these: a549, 2 h.
Data set [23] in a line: Drug uptake in human A549 cells at 25 uM incubated for 2 hrs by FACS analysis (reference value: 0%). Format: ADME, cell-based. The note with it: a549, 2 h.
A further data set relates to HCC827. The data set is classed as functional, cell-based. The note with it: Homo sapiens, HCC827, 72 h.
The test system of data set [24] is A549. The experiment in a line: Inhibition of cell migration in CM-dil-labelled human A549 cells xenografted in 48 hrs post-fertilization zebrafish embryos at 15 uM incubated for 48 hrs by confocal microscopic method. The data set is classed as functional, cell-based.
In data set [25] the test system is A549. Nature of the data set: Induction of cell cycle arrest in human A549 cells assessed as accumulation at G0/G1 phase at 15 uM incubated for 48 hrs by PI staining based flow cytometric analysis (reference value: 51.73%). Format: functional.
In data set [26] the test system is A549. The experiment in a line: Induction of cell cycle arrest in human A549 cells assessed as accumulation at S phase at 15 uM incubated for 48 hrs by PI staining based flow cytometric analysis (reference value: 33.67%). Format: functional.
The subject of data set [27] is A549. The experiment in a line: Induction of cell cycle arrest in human A549 cells assessed as accumulation at G2/M phase at 15 uM incubated for 48 hrs by PI staining based flow cytometric analysis (reference value: 14.36%). The data set is classed as functional.

Sequence of Epidermal growth factor receptor (Homo sapiens) (P00533 whole entry): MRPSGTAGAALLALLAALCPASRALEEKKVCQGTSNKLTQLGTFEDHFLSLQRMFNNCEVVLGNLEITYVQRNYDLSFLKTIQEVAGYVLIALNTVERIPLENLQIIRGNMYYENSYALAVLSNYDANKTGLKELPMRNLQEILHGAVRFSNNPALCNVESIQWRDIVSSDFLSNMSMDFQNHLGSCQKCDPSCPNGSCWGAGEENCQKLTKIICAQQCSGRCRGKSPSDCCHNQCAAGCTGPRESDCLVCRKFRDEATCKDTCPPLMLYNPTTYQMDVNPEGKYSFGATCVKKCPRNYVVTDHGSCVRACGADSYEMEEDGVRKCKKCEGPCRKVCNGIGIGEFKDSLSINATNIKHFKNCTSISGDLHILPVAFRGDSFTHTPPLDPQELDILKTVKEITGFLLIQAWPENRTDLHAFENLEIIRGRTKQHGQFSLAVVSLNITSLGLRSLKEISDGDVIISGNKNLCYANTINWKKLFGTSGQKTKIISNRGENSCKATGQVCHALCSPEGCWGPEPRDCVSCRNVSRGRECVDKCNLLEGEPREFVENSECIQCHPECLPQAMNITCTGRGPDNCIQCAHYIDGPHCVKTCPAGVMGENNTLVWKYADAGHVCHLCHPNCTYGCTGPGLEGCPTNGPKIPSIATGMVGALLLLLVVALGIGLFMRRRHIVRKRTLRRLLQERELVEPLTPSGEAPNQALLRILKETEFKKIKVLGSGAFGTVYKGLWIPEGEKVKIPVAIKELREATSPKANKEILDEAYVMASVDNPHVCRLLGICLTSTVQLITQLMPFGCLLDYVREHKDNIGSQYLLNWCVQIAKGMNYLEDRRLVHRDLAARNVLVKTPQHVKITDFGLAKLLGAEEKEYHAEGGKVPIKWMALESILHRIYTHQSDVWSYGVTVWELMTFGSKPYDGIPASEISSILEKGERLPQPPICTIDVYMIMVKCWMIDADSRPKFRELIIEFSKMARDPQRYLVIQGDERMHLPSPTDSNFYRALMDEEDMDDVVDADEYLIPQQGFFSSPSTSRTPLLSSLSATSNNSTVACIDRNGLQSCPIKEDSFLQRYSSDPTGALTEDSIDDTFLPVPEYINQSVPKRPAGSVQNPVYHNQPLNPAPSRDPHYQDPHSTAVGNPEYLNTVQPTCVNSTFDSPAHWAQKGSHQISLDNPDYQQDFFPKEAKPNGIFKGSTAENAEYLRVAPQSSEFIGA
Description for A-431: Antiproliferative activity against human A431 cells incubated for 72 hrs by MTT assay

`CCN(CC)CCN1CCN(c2cc3ncnc(Nc4ccc(F)c(Cl)c4)c3cc2F)CC1` came in with an inhibition in data set [1] of less than 20%.
On the same count and under the same terms, then `C#Cc1cccc(Nc2ncnc3cc(N4CCN(CCN(CC)CC)CC4)c(F)cc23)c1`, with less than 20%.
As for `COc1cc2ncnc(Nc3ccc(F)c(Cl)c3)c2cc1OCCCN1CCOCC1` [GEFITINIB], the viability at 20 µM with A549 [2] was 83.3%. Further, the Activity in the data set with A549 [3] turned out to be 7.93%; in the data set on A549 [4], 7.86%; with A549 [5] it was 0.95%; with A549 [6] it was 76.94%; with A549 [7], 16.98%; in the data set with A549 [8] it was 5.95%.
With `COCCN1CCN(c2cc3ncnc(Nc4ccc(F)c(Cl)c4)c3cc2F)CC1`, the IC50 turned out to be 49.8 µM with NCI-H1975, 16.4 µM in the data set with SW480, 14.4 µM in the data set on A549 [9] and 12.6 µM with A-431.
Take `Fc1ccc(Nc2ncnc3cc(N4CCNCC4)c(F)cc23)cc1Cl`: in data set [1], the inhibition is less than 20%.
As for `Fc1cccc(COc2ccc(Nc3ncnc4cc(N5CCOCC5)c(F)cc34)cc2Cl)c1`, the 50% inhibitory concentration (IC50) is 52.6 µM in the data set on NCI-H1975, 57.5 µM in the data set on SW480, 71.8 µM in the data set with A549 [9] and 10.1 µM with A-431.
The molecule `CCN(CC)CCN1CCN(c2cc3ncnc(Nc4ccc(OCc5cccc(F)c5)c(Cl)c4)c3cc2F)CC1` gave an inhibition in data set [1] greater than 20%.
On to `Fc1ccc(Nc2ncnc3cc(N4CCOCC4)c(F)cc23)cc1Cl`, for which the concentration for half-maximal inhibition (IC50) was greater than 100 µM in the data set on NCI-H1975, greater than 100 µM in the data set with SW480, greater than 100 µM in the data set with A549 [9] and 85.6 µM in the data set on A-431.
With `C#Cc1cccc(Nc2ncnc3cc(N4CCOCC4)c(F)cc23)c1`, the IC50 in the data set on NCI-H1975, in the data set on SW480, in the data set with A549 [9] and in the data set on A-431 was greater than 100 µM throughout.
On to `C/C=C/c1ccc(Nc2ncnc3cc(N4CCNCC4)c(F)cc23)cc1`, for which the inhibition in data set [1] was less than 20%.
In the case of `C#Cc1cccc(Nc2ncnc3cc(N4CCN(CCOC)CC4)c(F)cc23)c1`, the half-maximal inhibitory concentration (IC50) with NCI-H1975 was found to be 68.1 µM; in the data set with SW480, 19 µM; in the data set on A549 [9], 19.2 µM; in the data set with A-431, 12.8 µM.
Turning to `Fc1cccc(COc2ccc(Nc3ncnc4cc(N5CCNCC5)c(F)cc34)cc2Cl)c1`, the inhibition result in data set [10], in data set [11], in [12], in data set [13], in data set [14] and in data set [15] was “inactive” in each case. Moreover, the Drug uptake entry in data set [16] is reported as “Active”; in [17], “Active”; in data set [18] it was “Active”; in data set [19], “Active”; in data set [20] it was “Dose-dependent effect”; in data set [21], 74.03%. For the same molecule, the Drug uptake in data set [22] is 99.95%; in [23], 100%. The same molecule gave an inhibition in data set [1] of less than 20%.
`CS(=O)(=O)CCNCc1ccc(-c2ccc3ncnc(Nc4ccc(OCc5cccc(F)c5)c(Cl)c4)c3c2)o1` [LAPATINIB]: the results for the IC50 with HCC827 and with A549 [9] were 0.6 µM and 14.9 µM, respectively. For the same molecule, the inhibition entry in the data set with A549 [24] was “Active”. In addition, the values for the Activity with A549 [25], with A549 [26] and in the data set with A549 [27] were 69.72%, 22.35% and 7.66%, respectively.
For `C/C=C/c1ccc(Nc2ncnc3cc(N4CCOCC4)c(F)cc23)cc1`, the 50% inhibitory concentration (IC50) with NCI-H1975 is greater than 100 µM; in the data set on SW480, greater than 100 µM; in the data set with A549 [9], greater than 100 µM; in the data set on A-431, 64 µM.
As to `C#Cc1cccc(Nc2ncnc3cc(N4CCNCC4)c(F)cc23)c1`, the inhibition in data set [1] was less than 20%.
On to `COCCN1CCN(c2cc3ncnc(Nc4ccc(OCc5cccc(F)c5)c(Cl)c4)c3cc2F)CC1`, for which the half-inhibitory concentration (IC50) in the data set with NCI-H1975, with SW480, in the data set with A549 [9] and with A-431 was greater than 100 µM throughout.
Turning to `C/C=C/c1ccc(Nc2ncnc3cc(N4CCN(CCOC)CC4)c(F)cc23)cc1`, the 50% inhibitory concentration (IC50) is greater than 100 µM in the data set with NCI-H1975, greater than 100 µM with SW480, greater than 100 µM in the data set on A549 [9] and 49.2 µM in the data set on A-431.
Consider `C/C=C/c1ccc(Nc2ncnc3cc(N4CCN(CCN(CC)CC)CC4)c(F)cc23)cc1`, for which, in data set [1], the inhibition is less than 20%.

For orientation: inhibition means the percentage by which the read-out fell short of the control. For orientation: IC50 means the concentration at which inhibition is half-maximal. Read a high IC50 as weaker potency in that assay.
